What is called IC50 is the concentration that gives 50% inhibition.

One test relates to NCI-H460. Briefly: Antiproliferative activity against human NCI-H460 cells. In kind it is functional, cell-based.
The next test has as its system MKN-45. The test can be described thus: Antiproliferative activity against human MKN45 cells. In kind it is functional, cell-based.
A further test relates to UO-31. The test can be described thus: Antiproliferative activity against human UO31 cells. In kind it is functional, cell-based.
In a further test the test system is MCF7. The test can be described thus: Antiproliferative activity against human MCF7 cells. In kind it is functional, cell-based.
For a further test, the system named is MX1. Briefly: Antiproliferative activity against human MX1 cells. In kind it is functional, cell-based.
Test [1] concerns the target T1, Serine/threonine-protein kinase B-raf (Homo sapiens, UniProt P15056). Briefly: Inhibition of BRAF (unknown origin).
Test [2] relates to A-375. The test can be described thus: Antiproliferative activity against human A375 cells. In kind it is functional, cell-based.
The target in test [3] is T2, Serine/threonine-protein kinase B-raf (Homo sapiens, UniProt P15056, V600E). The test can be described thus: Inhibition of BRAF V600E mutant (unknown origin).
The test system of another test is HCT-116. Briefly: Antiproliferative activity against human HCT116 cells. In kind it is functional, cell-based.
Test [4] addresses T3, RAF proto-oncogene serine/threonine-protein kinase (Homo sapiens, UniProt P04049). The test can be described thus: Inhibition of CRAF (unknown origin).
Test [5] concerns the target T4, Serine/threonine-protein kinase A-Raf (Homo sapiens, UniProt P10398).
T4 sequence (P10398 whole entry): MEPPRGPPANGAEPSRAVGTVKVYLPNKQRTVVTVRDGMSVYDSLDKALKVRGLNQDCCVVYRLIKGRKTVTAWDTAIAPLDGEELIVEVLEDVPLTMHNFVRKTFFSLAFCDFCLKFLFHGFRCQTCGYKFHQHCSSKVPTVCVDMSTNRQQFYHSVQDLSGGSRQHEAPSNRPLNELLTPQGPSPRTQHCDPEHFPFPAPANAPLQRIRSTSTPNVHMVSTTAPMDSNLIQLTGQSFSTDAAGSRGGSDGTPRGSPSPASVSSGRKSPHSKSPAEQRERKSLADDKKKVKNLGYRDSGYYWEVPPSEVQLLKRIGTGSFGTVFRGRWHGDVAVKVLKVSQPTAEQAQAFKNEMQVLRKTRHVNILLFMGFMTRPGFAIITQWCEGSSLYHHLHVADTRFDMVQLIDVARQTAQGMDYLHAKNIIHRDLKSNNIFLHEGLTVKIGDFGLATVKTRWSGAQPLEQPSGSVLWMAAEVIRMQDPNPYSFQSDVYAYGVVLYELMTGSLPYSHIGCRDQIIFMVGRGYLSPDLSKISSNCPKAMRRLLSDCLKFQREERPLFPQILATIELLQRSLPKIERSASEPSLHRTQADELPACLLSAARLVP
The test can be described thus: Inhibition of ARAF (unknown origin).

Test [6] addresses T2, Serine/threonine-protein kinase B-raf. Briefly: Inhibition of […] BRAF V600E mutant (AA416 to 766 residues (unknown origin) using full length His6-tagged MEK1 as substrate after 20 mins in presence of 33P-gamma-ATP by hotspot kinase assay.
For test [7], the target named is T4, Serine/threonine-protein kinase A-Raf. Briefly: Inhibition of ARAF (unknown origin) after 20 mins in presence of 33P-gamma-ATP by hotspot kinase.
In test [8] the target is T1, Serine/threonine-protein kinase B-raf. The test can be described thus: Inhibition of BRAF (unknown origin) using full length His6-tagged MEK1 as substrate after 20 mins in presence of 33P-gamma-ATP by hotspot kinase assay.
Test [9] addresses T3, RAF proto-oncogene serine/threonine-protein kinase. Briefly: Inhibition of CRAF (unknown origin) after 20 mins in presence of 33P-gamma-ATP by hotspot kinase assay.
The subject of test [10] is A-375. Briefly: Antiproliferative activity against human A375 cells after 72 hrs by CTG solution based luminescence assay. In kind it is functional, cell-based. The following applies: A-375, 72 h.
A further test deals with COLO 205. Briefly: Antiproliferative activity against human COLO205 cells after 72 hrs by CTG solution based luminescence assay. In kind it is functional, cell-based. The following applies: COLO 205, 72 h.
A further test deals with SK-MEL-2. Briefly: Antiproliferative activity against human SK-MEL-2 cells after 72 hrs by CTG solution based luminescence assay. The conditions noted are these: SK-MEL-2, 72 h. In kind it is functional, cell-based.
The next test relates to HepG2. The test can be described thus: Antiproliferative activity against human HepG2 cells. In kind it is functional, cell-based.
Another test has as its system KETR3. Briefly: Antiproliferative activity against human Ketr3 cells. In kind it is functional, cell-based.
The next test deals with HT-29. The test can be described thus: Antiproliferative activity against human HT-29 cells. In kind it is functional, cell-based.

T1 sequence (P15056 whole entry): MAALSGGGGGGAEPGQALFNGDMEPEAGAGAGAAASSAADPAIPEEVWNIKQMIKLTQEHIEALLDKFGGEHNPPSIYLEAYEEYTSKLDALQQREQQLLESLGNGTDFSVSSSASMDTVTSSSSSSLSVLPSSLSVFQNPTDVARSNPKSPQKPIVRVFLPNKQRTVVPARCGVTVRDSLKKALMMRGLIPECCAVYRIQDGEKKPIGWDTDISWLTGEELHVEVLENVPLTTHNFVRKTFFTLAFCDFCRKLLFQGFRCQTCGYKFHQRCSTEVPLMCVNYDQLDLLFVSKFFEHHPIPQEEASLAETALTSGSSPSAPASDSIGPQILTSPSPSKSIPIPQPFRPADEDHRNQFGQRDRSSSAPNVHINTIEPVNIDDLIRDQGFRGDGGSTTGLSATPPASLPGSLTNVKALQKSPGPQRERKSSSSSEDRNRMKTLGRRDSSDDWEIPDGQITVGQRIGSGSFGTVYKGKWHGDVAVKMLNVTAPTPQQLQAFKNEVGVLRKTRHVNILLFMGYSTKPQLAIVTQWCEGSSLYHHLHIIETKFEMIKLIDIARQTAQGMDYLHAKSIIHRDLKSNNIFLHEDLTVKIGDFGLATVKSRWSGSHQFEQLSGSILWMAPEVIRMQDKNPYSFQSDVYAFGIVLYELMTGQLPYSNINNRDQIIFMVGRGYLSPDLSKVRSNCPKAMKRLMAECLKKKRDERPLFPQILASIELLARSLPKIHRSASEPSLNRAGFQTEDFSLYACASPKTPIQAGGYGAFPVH
T2 sequence (P15056 2-766 V600E limits assumed): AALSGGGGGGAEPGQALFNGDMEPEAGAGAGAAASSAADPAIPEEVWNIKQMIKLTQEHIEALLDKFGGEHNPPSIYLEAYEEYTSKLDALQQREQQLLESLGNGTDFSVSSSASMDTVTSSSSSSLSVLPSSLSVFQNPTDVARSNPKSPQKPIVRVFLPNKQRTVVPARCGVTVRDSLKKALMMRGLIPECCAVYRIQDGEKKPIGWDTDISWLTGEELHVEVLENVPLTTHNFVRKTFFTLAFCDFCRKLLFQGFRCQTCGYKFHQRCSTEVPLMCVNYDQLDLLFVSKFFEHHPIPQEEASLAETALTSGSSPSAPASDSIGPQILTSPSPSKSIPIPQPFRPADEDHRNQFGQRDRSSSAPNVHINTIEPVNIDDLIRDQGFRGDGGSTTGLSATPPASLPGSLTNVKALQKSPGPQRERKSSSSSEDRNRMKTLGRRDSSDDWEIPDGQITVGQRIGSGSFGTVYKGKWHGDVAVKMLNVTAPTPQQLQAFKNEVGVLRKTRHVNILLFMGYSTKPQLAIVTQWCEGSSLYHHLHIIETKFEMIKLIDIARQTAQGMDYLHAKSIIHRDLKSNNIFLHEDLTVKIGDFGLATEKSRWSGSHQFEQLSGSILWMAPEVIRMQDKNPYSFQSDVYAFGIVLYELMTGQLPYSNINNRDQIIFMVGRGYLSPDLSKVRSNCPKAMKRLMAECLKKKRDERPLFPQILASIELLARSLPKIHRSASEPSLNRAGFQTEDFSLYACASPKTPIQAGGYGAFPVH
T3 sequence (P04049 whole entry): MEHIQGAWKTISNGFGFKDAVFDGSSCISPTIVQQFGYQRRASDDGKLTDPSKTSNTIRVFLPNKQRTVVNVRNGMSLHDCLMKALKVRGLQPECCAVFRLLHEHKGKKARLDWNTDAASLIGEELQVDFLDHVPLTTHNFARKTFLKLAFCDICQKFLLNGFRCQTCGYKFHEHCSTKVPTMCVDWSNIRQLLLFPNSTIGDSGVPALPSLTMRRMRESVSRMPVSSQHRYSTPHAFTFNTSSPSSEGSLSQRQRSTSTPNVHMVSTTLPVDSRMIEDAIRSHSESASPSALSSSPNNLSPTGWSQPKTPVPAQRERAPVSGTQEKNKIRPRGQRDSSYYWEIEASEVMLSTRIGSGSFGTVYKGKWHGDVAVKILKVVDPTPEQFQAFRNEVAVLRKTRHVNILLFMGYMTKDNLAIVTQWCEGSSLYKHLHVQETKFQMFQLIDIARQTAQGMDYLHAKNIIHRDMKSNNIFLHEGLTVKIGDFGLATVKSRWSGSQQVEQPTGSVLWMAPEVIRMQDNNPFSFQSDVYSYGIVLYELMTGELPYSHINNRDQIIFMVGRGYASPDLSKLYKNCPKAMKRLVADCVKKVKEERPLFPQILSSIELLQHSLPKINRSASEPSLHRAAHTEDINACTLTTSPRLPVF

As for `CN(C)CCn1cnnc1-c1cc(Oc2ccc(NC(=O)N/N=C/c3cccc(Cl)c3Cl)cc2F)ccn1`, the IC50 was found to be 70 nM with NCI-H460 and 50 nM in the test on MKN-45.

Consider `COc1ccc(C(=O)NCCNc2nccc(-c3c(-c4ccc(F)cc4)nc4sccn34)n2)cc1`, for which the IC50 with UO-31 was 1420 nM; in the test with MCF7 it was 2000 nM.

`CC(NC(=O)c1ccc(-c2ccc(NC(=O)Nc3ccc(C(F)(F)F)c(Cl)c3)cc2)cc1)c1ccccc1` (stereo unspecified) returned an IC50 in the test with MX1 of 4630 nM.

In the case of `CNC(=O)c1cc(Cn2ccc3cc(NC(=O)Nc4ccc(Cl)c(C(F)(F)F)c4)ccc32)ccn1`, in [1], the midpoint of inhibition, the IC50, lay at 510 nM.

As to `CNc1cc2c(cn1)cc(-c1ccc(F)c(NC(=O)Nc3cc(C(C)(C)C)no3)c1)c(=O)n2C1CCOC1` (stereo unspecified), the IC50 came to 6 nM in the test with A-375 [2], 1000 nM in [3] and 32 nM with HCT-116.

`O=S(=O)(NCCNc1nccc(-c2c(-c3ccc(F)cc3)nc3sccn23)n1)c1ccc(O)cc1`: the results for the concentration for half-maximal inhibition (IC50) in test [3] and in test [4] were 19 nM and 40 nM, respectively.

Regarding `Cc1ccc(C(=O)Nc2ccc(C(F)(F)F)c(Cl)c2)cc1NC(=O)C1(c2cc(NCCCN3CCN(C)CC3)ncn2)CC1`, the IC50 was 1.4 to 12.2 nM in [3], 25.3 nM in test [5], 29.7 nM in [1] and 13.3 nM in test [4].

Turning to `O=C(NCCNc1nccc(-c2c(-c3ccc(F)cc3)nc3sccn23)n1)c1ccccc1`, the figures for the IC50 in the test on UO-31 and in the test with MCF7 were 1750 nM and 1430 nM, respectively.

`CNC(=O)c1cc(Cn2cc(F)c3cc(NC(=O)Nc4ccc(Cl)c(C(F)(F)F)c4)ccc32)ccn1` had an IC50 in [1] of 1360 nM.

As to `O=C(NCCNc1nccc(-c2c(-c3ccc(F)cc3)nc3sccn23)n1)Nc1ccccc1`, the IC50 in the test on UO-31 came to 2940 nM; in the test on MCF7, 3730 nM.

For the molecule `Cc1ccc(C(=O)Nc2ccc(C(F)(F)F)c(Cl)c2)cc1NC(=O)C1(c2ccnc(NCCN3CCN(C)CC3)n2)CC1`, the concentration for half-maximal inhibition (IC50) in test [3] came to 12.6 nM; in [6] it was 12.6 nM; in test [7], 30.1 nM; in test [8], 19.7 nM; in test [9], 17.5 nM; in the test with A-375 [10], 1070 nM. Further, the half-maximal inhibitory concentration (IC50) in the test on COLO 205 was 1920 nM; in the test with SK-MEL-2 it was below 400 nM.

Consider `O=S(=O)(c1ccc(F)cc1)N1CCCC(Nc2nccc(-c3c(-c4ccc(F)cc4)nc4sccn34)n2)C1` (stereo unspecified), for which, in test [3], inhibition was half-maximal at 23 nM (IC50).

For the molecule `COc1cc2c(cnc3[nH]nc(C4CC4)c32)cc1-c1c(F)ccc(NS(=O)(=O)CCCF)c1F`, the IC50 with A-375 [2] was 13 nM; in test [3], 7 nM.

For `CC(NC(=O)c1cccc(-c2ccc(NC(=O)Nc3ccc(C(F)(F)F)c(Cl)c3)cc2)c1)c1ccccc1` (stereo unspecified), the IC50 in the test on A-375 [2] was 5170 nM; in the test with MX1, 5170 to 6460 nM; in the test on HepG2, 5170 to 6460 nM; in the test with KETR3 it was 5170 to 6460 nM; with HT-29, 5170 to 6460 nM.

Take `CNC(=O)c1cc(Oc2ccc(NC(=O)Nc3ccc(Cl)c(C(F)(F)F)c3)cc2)ccn1` [SORAFENIB]: the IC50 is 8270 to 18800 nM in the test with A-375 [2]; 8270 to 18800 nM in the test with MX1; 8270 to 18800 nM in the test with HepG2; 8270 to 18800 nM with KETR3; 3610 to 18800 nM in the test with HT-29.

(Values after ChEMBL document CHEMBL4270647, “Recent advances of RAF (rapidly accelerated fibrosarcoma) inhibitors as anti-cancer agents” (Eur J Med Chem, 2018).)
